Reference: patent US11408022B2, “Preparation method of anti-oxidation polypeptide” (Fu Zhou University, priority 2018, dated 2022)
Where no end group is shown, it is not given here.

How the values were obtained:
Assay type in all cases: biochemical
[1] = Oxygen radical absorption capacity
[2] = DPPH radical elimination activity; details: 1 mg/mL
Method: 1 mL of the sample of different concentrations was respectively well mixed with 1 mL of DPPH solution ([…], prepared using 95% ethanol). The mixed solutions were kept still in shadow at room temperature for 30 min, and then the absorbance was determined at the wavelength of 517 nm. 1 mL of 95% ethanol solution in replacement of the DDPPH solution was used to prepare the sample reference group; and the control group included 1 mL of DPPH solution and 1 mL of 95% ethanol solution. The elimination rate of DPPH radicals of the sample was calculated using the following equation: […]
In the equation, • Ai—absorbance of the sample group • Aj—absorbance of the sample reference group • A0—absorbance of the control group

[3] = ABTS radical elimination activity; details: 1 mg/mL
Method: 7 mM ABTS mother solution and 2.45 mM potassium peroxydisulfate solution were respectively prepared and stored for later use. The two solutions were mixed in a ratio of 1:1 before use. The mixed solution was placed still at room temperature for 16 h, and then diluted with phosphate buffer solution (5 mM, 7.4 pH) to obtain an ABTS radical solution with absorbance of 0.70±0.02 at the wavelength of 734 nm. The ABTS radical solution was mixed with samples of different concentrations and equal volume; after 10 min reaction at room temperature, the absorbance of the mixtures was determined at the wavelength of 734 nm; and finally, the mixtures were zero-set using the phosphate buffer solution (5 mM, 7.4 pH). In the control group, distilled water was used to replace samples. The elimination rate of ABTS radicals of the sample was calculated using the following equation: […]
In the equation: • Acontrol—absorbance of the control group • Asample—absorbance of the sample

## GAAVAL [anti-oxidation polypeptide, hexapeptide isolated from alkali protease hydrolysate of black shark skins]
[1]
  Oxygen radical absorption capacity: 527.53±65.15 μmol Trolox/g peptide
[2]
  Elimination rate of DPPH radicals: 67.00±0.24%
[3]
  Elimination rate of ABTS radicals: 64.12±0.20%
